Structures are written as SMILES.

Chain of USP7 (Q93009 whole entry, the tested form may be a part): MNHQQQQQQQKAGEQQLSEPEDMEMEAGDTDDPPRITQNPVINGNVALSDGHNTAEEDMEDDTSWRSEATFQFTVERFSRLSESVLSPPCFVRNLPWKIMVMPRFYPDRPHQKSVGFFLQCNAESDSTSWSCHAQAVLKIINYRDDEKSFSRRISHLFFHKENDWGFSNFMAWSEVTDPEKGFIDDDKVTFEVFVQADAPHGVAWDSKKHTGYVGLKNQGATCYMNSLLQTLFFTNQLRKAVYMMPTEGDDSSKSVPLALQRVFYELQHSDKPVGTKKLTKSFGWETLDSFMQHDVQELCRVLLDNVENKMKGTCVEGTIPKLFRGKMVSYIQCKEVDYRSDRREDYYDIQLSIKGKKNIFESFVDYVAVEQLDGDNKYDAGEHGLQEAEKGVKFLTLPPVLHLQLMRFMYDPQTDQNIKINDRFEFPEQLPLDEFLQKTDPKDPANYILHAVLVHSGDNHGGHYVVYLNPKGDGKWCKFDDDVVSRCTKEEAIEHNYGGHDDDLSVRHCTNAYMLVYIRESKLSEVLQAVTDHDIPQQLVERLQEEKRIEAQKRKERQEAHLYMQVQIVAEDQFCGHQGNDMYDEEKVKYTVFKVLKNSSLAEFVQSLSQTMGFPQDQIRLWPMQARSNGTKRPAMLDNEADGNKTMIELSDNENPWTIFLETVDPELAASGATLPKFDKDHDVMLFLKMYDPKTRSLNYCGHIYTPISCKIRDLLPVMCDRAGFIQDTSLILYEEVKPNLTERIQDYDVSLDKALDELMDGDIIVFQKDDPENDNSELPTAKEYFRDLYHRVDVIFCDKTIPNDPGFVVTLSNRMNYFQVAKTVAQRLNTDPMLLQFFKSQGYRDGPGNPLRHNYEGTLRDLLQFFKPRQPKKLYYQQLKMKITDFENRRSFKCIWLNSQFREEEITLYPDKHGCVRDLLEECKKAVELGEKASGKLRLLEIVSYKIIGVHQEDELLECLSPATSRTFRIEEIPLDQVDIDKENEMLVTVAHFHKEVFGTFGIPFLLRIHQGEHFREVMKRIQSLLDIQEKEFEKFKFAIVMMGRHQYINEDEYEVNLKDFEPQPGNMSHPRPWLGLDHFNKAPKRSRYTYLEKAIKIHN

This experiment concerns the target USP7 (Homo sapiens, UniProt Q93009). Nature of the experiment: USP7 activity assay (Ub-AMC). The experiment is classed as biochemical. On the set-up: Full-length wild-type human USP7 and its catalytic mutant (cysteine 223 replaced by alanine, C223A) were produced as N-terminally His-tagged fusions; His tag (pFastBac-HT) (N); made in house; host or cells: Spodoptera frugiperda Sf9 (or High Five) insect cells, baculovirus. The conditions noted are these: 300 nM Ub-AMC, 100 pM enzyme, 30 min pre-incubation; read-out: USP7 (inhibition of deubiquitinating activity). An excerpt:
The cDNA encoding USP7 was obtained by PCR amplification from placenta mRNA. USP7 cDNA was subcloned by PCR into a baculovirus expression vector (pFastBac-HT; Invitrogen). Full-length wild-type human USP7 and its catalytic mutant (cysteine 223 replaced by alanine, C223A) were produced as N-terminally His-tagged fusions in Spodoptera frugiperda cells (Sf9, Invitrogen), using the Bac-to-Bac Baculovirus system from Invitrogen according to the manufacturer's instructions. pFastBac-HT-B-USP7 was used to transform DH10bac cells (Invitrogen), and blue/white selection was carried out on X-gal/IPTG agar plates. Bacmid DNA was prepared by an alkaline lysis procedure. The integrity of the bacmid minipreps and their orientation were checked by PCR, using generic and specific primers. Sf9 insect cells were cultured in InsectXpress medium (Cambrex) at 27° C. and transfected with the corresponding bacmid, using GeneShuttle 40 (Q-BIOgen). Viruses were recovered in the supernatant 72 h after transfection. Viruses were amplified by infecting insect cells (Sf9 or High Five cells; invitrogen) in 50 ml InsectXpress medium in a 150 cm^2 cell culture flask with 500 μl of the supernatant from transfected Sf9 cells. Following the second round of amplification, infected cells were recovered by rapid SDS lysis, boiled for 5 min at 100° C., sonicated briefly and centrifuged for 20 min at 14,000 g. Expression levels in infected Sf9 cells were compared with those in uninfected cells. Fusion proteins were then allowed to bind to TALON beads (BD Biosciences, TALON metal affinity resin) for 30 min at 4° C. with gentle rocking. Beads were extensively washed (50 mM sodium phosphate buffer pH 7.0, 500 mM NaCl, 10 mM Imidazole, 0.5% Triton X-100 and 10% glycerol) and bound proteins were eluted in wash buffer supplemented with 250 mM Imidazole (Sigma). Eluted fractions were resolved on 4-12% NuPAGE gels (Novex, Invitrogen). Fractions containing high concentrations of purified proteins (purity>95%) were dialyzed (20 mM Tris HCl pH 7.6, 200 mM NaCl, 1 mM DTT, 1 mM EDTA and 10% glycerol) were aliquoted and snap frozen in liquid nitrogen before storage at −80° C.
USP7 was diluted in USP buffer (50 mM Tris HCl; 0.5 mM EDTA; 5 mM DTT; 0.01% Triton X-100; Bovine Serum Albumin 0.05 mg·ml^−1 pH 7.6). Compounds stocks (10 mM) were stored at −20° C. in DMSO. Compounds were tested at different concentrations: from 200 μM to 91 nM.
Reactions were performed as duplicates in Black 384 well plates (small volumes microplates; Greiner; 10 μl final reaction volume). The substrate concentration for USP7 was 300 nM Ub-AMC (Chem. Biol., 2003, 10, p. 837-846) (Boston Biochem). The concentrations of the enzyme (USP7) in specificity assays was 100 pM. The concentrations were determined in order to perform specificity assays under initial velocities at fixed substrate concentration. Compounds were pre-incubated with enzymes for 30 minutes at 25° C. Reactions were initiated by addition of substrate to the plates containing the enzymes (+/−compounds) diluted in assay buffer. Reactions were incubated for 60 minutes at 37° C. Reactions were stopped by adding acetic acid (100 mM final). Readings were performed on a Pherastar Fluorescent Reader (BMG). λ Emission 380 nm; λ Excitation=460 nm. Data (mean values+/−standard deviation) were analyzed as % of control (no compound) and plotted as percentage versus the Log of the compound concentration using GraphPad (Prism). Data were fitted to a sigmoidal model (variable slope).
For the compound `Cc1cccc(CN2CCC(CNC(=O)c3ccc4c(Cl)c5c(nc4c3)CCCC5)CC2)c1` [Example 1, 9-Chloro-5,6,7,8-tetrahydro-acridine-3-carboxylic acid [1-(3-methyl-benzyl)-piperidin-4-ylmethyl]-amide], the IC50 stood at 9.1 µM.

As for `CCN1CCCC1CNC(=O)c1ccc2c(Cl)c3c(nc2c1)CCCC3` (stereo not shown) [Example 2, 9-Chloro-5,6,7,8-tetrahydro-acridine-3-carboxylic acid (1-ethyl-pyrrolidin-2-ylmethyl)-amide], the IC50 came out at 11.5 µM.

With `CCCN(CCC)CCNC(=O)c1ccc2c(Cl)c3c(nc2c1)CCCC3` [Example 3, 9-Chloro-5,6,7,8-tetrahydro-acridine-3-carboxylic acid (2-dipropylamino-ethyl)-amide], the IC50 worked out at 12.4 µM.

For the compound `CCCCN(CC)CCNC(=O)c1ccc2c(Cl)c3c(nc2c1)CCCC3` [Example 4, 9-Chloro-5,6,7,8-tetrahydro-acridine-3-carboxylic acid [2-(butyl-ethyl-amino)-ethyl]-amide], the IC50 was determined as 23.5 µM.

For the compound `CCN(CCCNC(=O)c1ccc2c(Cl)c3c(nc2c1)CCCC3)Cc1ccccc1` [Example 5, 9-Chloro-5,6,7,8-tetrahydro-acridine-3-carboxylic acid [3-(benzyl-ethyl-amino)-propyl]-amide], the IC50 was found to be 22.6 µM.

On to `CCCN(CCC)CCCNC(=O)c1ccc2c(Cl)c3c(nc2c1)CCCC3` [Example 6, 9-Chloro-5,6,7,8-tetrahydro-acridine-3-carboxylic acid (3-dipropylamino-propyl)-amide], for which the IC50 came to 23.8 µM.

Consider `CCN(CC)CCNC(=O)c1ccc2c(Cl)c3c(nc2c1)CCCC3` [Example 7, 9-Chloro-5,6,7,8-tetrahydro-acridine-3-carboxylic acid (2-diethylamino-ethyl)-amide], for which the IC50 came to 24.9 µM.

Consider `O=C(NCCCN1CCCC1)c1ccc2c(Cl)c3c(nc2c1)CCCC3` [Example 8, 9-Chloro-5,6,7,8-tetrahydro-acridine-3-carboxylic acid (3-pyrrolidin-1-yl-propyl)-amide], for which the IC50 came out at 25.6 µM.

For `CC1CCCC(C)N1CCCNC(=O)c1ccc2c(Cl)c3c(nc2c1)CCCC3` (stereo not shown) [Example 9, 9-Chloro-5,6,7,8-tetrahydro-acridine-3-carboxylic acid [3-(2,6-dimethyl-piperidin-1-yl)-propyl]-amide], the IC50 came to 28.7 µM.

Take `CCN(CC)CCCNC(=O)c1ccc2c(Cl)c3c(nc2c1)CCCC3` [Example 10, 9-Chloro-5,6,7,8-tetrahydro-acridine-3-carboxylic acid (3-diethylamino-propyl)-amide]: the IC50 came to 29.2 µM.

For the compound `CN(C)CCNC(=O)c1ccc2c(Cl)c3c(nc2c1)CCCC3` [Example 11, 9-Chloro-5,6,7,8-tetrahydro-acridine-3-carboxylic acid (2-dimethylamino-ethyl)-amide], the IC50 is 29.8 µM.

Regarding `O=C(c1ccc2c(Cl)c3c(nc2c1)CCCC3)N1CCCCCC1` [Example 12, Azepan-1-yl-(9-chloro-5,6,7,8-tetrahydro-acridin-3-yl)-methanone], the IC50 was determined as 37.9 µM.

`CCCN1CCN(CCCNC(=O)c2ccc3c(Cl)c4c(nc3c2)CCCC4)CC1` [Example 13, 9-Chloro-5,6,7,8-tetrahydro-acridine-3-carboxylic acid [3-(4-propyl-piperazin-1-yl)-propyl]-amide]: the IC50 stood at 37.9 µM.

Take `CN(CCCNC(=O)c1ccc2c(Cl)c3c(nc2c1)CCCC3)Cc1ccccc1` [Example 14, 9-Chloro-5,6,7,8-tetrahydro-acridine-3-carboxylic acid [3-(benzyl-methyl-amino)-propyl]-amide]: the IC50 was 28.1 µM.

On to `CN1CCN(CCCNC(=O)c2ccc3c(Cl)c4c(nc3c2)CCCC4)CC1` [Example 15, 9-Chloro-5,6,7,8-tetrahydro-acridine-3-carboxylic acid [3-(4-methyl-piperazin-1-yl)-propyl]-amide], for which the IC50 was determined as 43 µM.

Turning to `O=C(c1ccc2c(Cl)c3c(nc2c1)CCCC3)N1CCC(N2CCCCC2)CC1` [Example 16, [1,4′]Bipiperidinyl-1′-yl-(9-chloro-5,6,7,8-tetrahydro-acridin-3-yl)-methanone], the IC50 is 46 µM.

For the origin of these results see US20110177105A1, “Novel Selective Inhibitors of Ubiquitin Specific Protease 7, the Pharmaceutical Compositions Thereof and Their Therapeutic Applications” (priority 2010, published 2011).
